Consider 45 compounds from patent US20070299114A1, “Biaryl Derivatives” (Shionogi & Co., Ltd., priority 2004, published 2007).

Experiment [1] deals with T1, dihydrooroate dehydrogenase (Homo sapiens, UniProt Q02127).
T1 construct: ultracentrifugation at 4° C. and 120,000×g for 60 minutes afforded a mitochondrial/microsomal fraction; endogenous in cells; host or cells: U-937 (human histiocytic lymphoma cell line), mitochondrial/microsomal fraction
The experiment in a line: dihydroorotate dehydrogenase inhibition, U-937 mitochondrial/microsomal fraction, DCIP absorbance at 620 nm. The settings on record: DHODH of human U-937 cell mitochondrial/microsomal fraction; 37° C., 120 minutes. In kind it is biochemical. The protocol:
Method of Testing dihydrooroate dehydrogenase Inhibition
Human U-937 cell (human histiocytic lymphoma cell line) was sonicated in a homogenizing buffer (20 mM Tris-HC1, pH 7.4, containing 2 mM EDTA and protease inhibitor cocktail), and this was centrifuged at 4° C. and 1,200×g for 15 minutes to remove cell debris. Further, ultracentrifugation at 4° C. and 120,000×g for 60 minutes afforded a mitochondrial/microsomal fraction. The resulting fraction was quantitated for a protein, and prepared to 10 mg/ml, which was freezing-stored in a −40° C. in a refrigerator until measurement. To 150 μl of the reaction solution (50 mM Tris-HC1, pH 7.4, containing 0.1% Triton X-100, 1 mM KCN, 100 μM coenzyme Q10, 200 μM DCIP), were added 10 μl of a dilution series of the compound and 0.2 mg of a mitochondrial/microsomal fraction, followed by pre-incubation at 37° C. for 30 minutes. Then, 20 μl of a 5 mM DHO solution (final concentration […]), which is a substrate, was added, this was incubated at 37° C. for 120 minutes, and an absorbance at a measurement wavelength of 620 nm was measured. A rate of suppression of a compound at each concentration relative to a change in an absorbance due to the enzyme reaction was obtained, and a concentration indicating 50% inhibition (IC50 value) was calculated to assess the inhibition activity of the compound.

For a further experiment, the system named is anti-OVA IgE antibody. The experiment in a line: suppression of IgE antibody production to anti-ovalbumin (OVA) in immunized mice, PCA titer. The settings on record: anti-OVA IgE antibody value (PCA titer, Log2 of maximum serum dilution rate) in BALB/c mice. Format: in vivo. The protocol: Effect of Suppression of IgE Antibody Production to Anti-Ovalbumin (OVA)
BALB/c mice (female, 8 to 10 week old) purchased from Japan Charles River (Kanagawa) and Wistar rats (female, 8 to 10 week old) purchased from Japan SLC (Sizuoka) were used.
BALB/c mice were immunized by intraperitoneally injecting 0.2 ml of a solution obtained by suspending 2 μg of ovalbumin (OVA) and an aluminum hydroxide gel (1 mg) in a brine. After ten days, blood was taken from a heart, the serum was separated, and an IgE antibody value was measured.
[…] Administration was performed from immunization date to the day before blood collection for consecutive 10 days.
4) Measurement of Anti-OVA IgE Antibody Value (PCA Titer)
The resulting mouse serum was prepared into a 2-fold dilution series with a brine, and each 50 μl of this was subcutaneously injected into a back of a pre-shaved Wistar rat. After 24 hours, 0.5 ml of a brine containing 1 mg of OVA and 5 mg of an Evans Blue dye was intravenously injected to induce a passive skin anaphylactic reaction (PCA).

The next experiment concerns Human lymphocyte. The experiment in a line: suppression of IgE antibody production in human lymphocyte stimulated with anti-human CD40 antibody and IL-4. Format: cell-based. To be noted: 216 h; IgE antibody production by human lymphocyte, anti-human CD40 antibody + IL-4, cultured for 9 days, ELISA. The protocol:
Effect of Suppressing Antibody Production Using Human Lymphocyte
1) Human Peripheral Blood
Human peripheral blood was collected with a plastic syringe containing heparin (final concentration 1.5%) from a vein of an adult healthy person, and subjected to collection of lymphocyte immediately after blood collection.
To the RPMI medium (Sigma) were added 10% of fetal bovine serum, (HyClone Lab.) which had been immobilized at 56° C. for 30 minutes, penicillin (100 units/ml) and streptomycin (100 μg/ml) (Invitrogen), which was used.
The present compound was dissolved in dimethyl sulfoxide (Nakalai Tesque) to 2 mg/ml and, thereafter, the solution was diluted with a medium to a final concentration of 0.01 pg/ml to 10 μg/ml.
Human peripheral blood was mixed with an equal amount of PBS-10 mM EDTA, 10 ml of this was overlaid on a tube containing 3 ml of Ficoll-Paque Plus (Pharmacia Biotech), followed by centrifugation at room temperature and 300×g for 30 minutes to obtain a lymphocyte layer. The collected cell suspension was centrifugation-washed with a sterilized Hanks's balanced salt solution (Invitrogen), passed through a nylon mesh, and centrifugation-washed with a medium, which was used in an experiment as human lymphocyte.
5) Inducement of IgE Antibody Production Due to B cell Stimulation
Human lymphocyte was seeded on a 96-well culturing plate (Sumitomo Bakelite) to 2×10^5 cells per well, and the compound, an anti-human CD40 antibody (Pharmingen, 2 μg/ml), and human recombinant interleukin-4 (IL-4) (PEPROTECH, 0.1 μg/ml) were added, followed by culturing at 37° C. under the presence of 5% CO2 (0.2 ml/well). After cultured for 9 days, an amount of an antibody produced in the supernatant was quantitated by a specific ELISA method.
6) Quantitation of IgE Antibody
For quantitating IgE, a commercially available kit, MESACUP IgE Test (Medical & Biological Laboratories Co., Ltd.) was used. An experimental method was according to the manual, an experiment was performed duplicately, and an average was obtained.
A general note: An ELISA detects its analyte on a solid surface through an enzyme-linked reagent.

pIC50: −log10 of the molar value.

T1 sequence (Q02127 whole entry): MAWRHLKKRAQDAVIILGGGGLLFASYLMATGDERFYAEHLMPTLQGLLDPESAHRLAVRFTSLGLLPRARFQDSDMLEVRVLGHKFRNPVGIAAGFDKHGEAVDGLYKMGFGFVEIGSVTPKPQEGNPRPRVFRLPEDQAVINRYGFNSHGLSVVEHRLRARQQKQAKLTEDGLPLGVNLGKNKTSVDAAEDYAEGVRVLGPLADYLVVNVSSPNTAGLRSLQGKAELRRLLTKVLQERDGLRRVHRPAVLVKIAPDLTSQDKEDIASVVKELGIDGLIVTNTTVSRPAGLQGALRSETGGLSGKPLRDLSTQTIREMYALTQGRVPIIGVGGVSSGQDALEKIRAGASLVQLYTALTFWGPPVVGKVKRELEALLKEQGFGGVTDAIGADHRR

In experiment [1], `CC/C(=C\c1c(C)c(OC)c(-c2ccc(NC(C)C)cc2)c(C)c1OC)C(=O)NC(C)C` [Compound 530] gave a pIC50 of 8.01.

Take `COc1cc(-c2ccc(NC(C)C)cc2F)c(OC)cc1/C=C(\C)C(=O)NC1CC1` [Compound 24]: the pIC50 in experiment [1] was 8.12.

Compound `CC/C(=C\c1c(C)c(F)c(-c2ccc(NC(C)C)cc2)c(C)c1F)C(=O)O` [Compound 493] showed a PCA in the experiment with anti-OVA IgE antibody (dose 10 mg/kg orally for consecutive 10 days) of 4.0. Further, in the experiment on Human lymphocyte, the IC50 worked out at 9.4 ng/mL.

For `C/C(=C\c1c(C)c(C)c(-c2ccc(NC3CCCC3)cc2)c(C)c1C)C(=O)NC1CCCC1` [Compound 463], in experiment [1], the pIC50 is 8.04.

On to `COc1c(C)c(-c2ccc(NC(C)C)cc2)c(OC)c(C)c1/C=C(\C)C(=O)O` [Compound 526], for which the PCA in the experiment with anti-OVA IgE antibody (dose 40 mg/kg orally for consecutive 10 days) was determined as 2.7. Also, in the experiment with Human lymphocyte, the IC50 was 0.9 ng/mL.

As to `CC/C(=C\c1cc(C)c(-c2ccc(NC(C)C)cc2F)cc1C)C(=O)NC1CCCC1` [Compound 321], the pIC50 in experiment [1] is 8.19.

The compound `COc1c(C)c(-c2ccc(NC(C)C)cc2)c(OC)c(C)c1/C=C(\C)C(=O)NC1CCCC1` [Compound 528] had a pIC50 in experiment [1] of 8.48.

Take `C/C(=C\c1c(C)c(C)c(-c2ccc(NC3CCCC3)cc2)c(C)c1C)C(=O)NC(C)C` [Compound 416]: in experiment [1], the negative logarithm of the IC50 (pIC50) was 8.58.

In experiment [1], `C/C(=C\c1cc(C)c(-c2ccc(NC(C)C)cc2F)cc1C)C(=O)N[C@H](C)C(=O)O` [Compound 349] gave a pIC50 of 8.05.

On to `COc1cc(-c2ccc(NCc3ccco3)cc2F)c(OC)cc1/C=C(\C)C(=O)NC1CC1` [Compound 28], for which, in experiment [1], the pIC50 is 8.14.

In turn, `C/C(=C\c1c(C)c(C)c(-c2ccc(NC(C)C)cc2)c(C)c1C)C(=O)NC(C)C` [Compound 415] showed a pIC50 in experiment [1] of 8.21.

`COc1cc(-c2ccc(NCc3ccco3)cc2F)c(OC)cc1/C=C(/F)C(=O)NC(C)C` [Compound 42]: in experiment [1], the negative logarithm of the IC50 (pIC50) was 8.00.

In experiment [1], `COc1c(C)c(-c2ccc(NC3CCCC3)cc2)c(OC)c(C)c1/C=C(\C)C(=O)NC1CCCC1` [Compound 536] had a pIC50 of 8.08.

`C/C(=C\c1c(C)c(F)c(-c2ccc(NC(C)C)cc2)c(C)c1F)C(=O)NC1CC1` [Compound 488] gave a pIC50 in experiment [1] of 8.00.

For the compound `Cc1cc(-c2ccc3[nH]ccc3c2)c(C)cc1/C=C(\Cl)C(=O)N[C@H](C)C(=O)O` [Compound 299], the pIC50 in experiment [1] is 8.02.

As for `C/C(=C\c1c(C)c(C)c(-c2ccc3[nH]ccc3c2)c(C)c1C)C(=O)NC1CC1` [Compound 417], the pIC50 in experiment [1] was 8.17.

For the compound `C/C(=C\c1c(C)c(C)c(-c2ccc(NC(C)C)cc2F)c(C)c1C)C(=O)NS(=O)(=O)c1ccccc1` [Compound 422], in experiment [1], the pIC50 is 8.19.

Take `CC/C(=C\c1cc(C)c(-c2ccc(NC3CCCC3)cc2F)cc1C)C(=O)NC1CC1` [Compound 173]: the pIC50 in experiment [1] is 8.15.

In experiment [1], `C/C(=C\c1cc(C)c(-c2ccc(NCc3ccco3)cc2F)cc1C)C(=O)NC1CCCC1` [Compound 334] had a pIC50 of 8.61.

Take `CC/C(=C\c1cc(C)c(-c2ccc(NC(C)C)cc2F)cc1C)C(=O)NC1CC1` [Compound 165]: in experiment [1], the pIC50 was 7.99.

Turning to `CC/C(=C\c1cc(C)c(-c2ccc(NC3CCCC3)cc2F)cc1C)C(=O)NC1CCCC1` [Compound 324], in experiment [1], the pIC50 was 8.33.

Turning to `C/C(=C\c1c(C)c(C)c(-c2ccc(NC3CCCC3)cc2)c(C)c1C)C(=O)NC1CC1` [Compound 426], the pIC50 in experiment [1] was 9.00.

In experiment [1], `Cc1cc(-c2cc(O)c3[nH]ccc3c2)c(C)cc1/C=C(\Cl)C(=O)NC(C)C` [Compound 267] had a pIC50 of 8.14.

For `COc1cc(-c2ccc(NCc3ccco3)cc2F)c(OC)cc1/C=C(\C)C(=O)NC(C)C` [Compound 27], the pIC50 in experiment [1] is 8.11.

Take `CC/C(=C\c1cc(C)c(-c2ccc(NCc3ccco3)cc2)cc1C)C(=O)NC1CCCC1` [Compound 309]: in experiment [1], the pIC50 was 8.39.

Consider `C/C(=C\c1c(C)c(C)c(-c2ccc(NCc3ccco3)cc2)c(C)c1C)C(=O)NC(C)C` [Compound 418], for which, in experiment [1], the pIC50 is 8.55.

`COc1cc(-c2ccc(NCc3ccco3)cc2F)c(OC)cc1/C=C(/F)C(=O)NC1CC1` [Compound 41] gave a pIC50 in experiment [1] of 8.09.

Consider `CC/C(=C\c1cc(C)c(-c2ccc(NC3CCCC3)cc2)cc1C)C(=O)NC1CCCC1` [Compound 313], for which, in experiment [1], the negative-log IC50 (pIC50) is 7.95.

Regarding `COC(=O)[C@@H](C)NC(=O)/C(C)=C/c1cc(C)c(-c2ccc(NC(C)C)cc2F)cc1C` [Compound 348], in experiment [1], the pIC50 is 8.21.

Regarding `CO/C(=C\c1cc(C)c(-c2ccc(NC(C)C)cc2F)cc1C)C(=O)NC(C)C` [Compound 292], in experiment [1], the pIC50 was 8.56.

With `C/C(=C\c1c(C)c(C)c(-c2ccc(NCc3ccco3)cc2)c(C)c1C)C(=O)NC1CC1` [Compound 425], in experiment [1], the pIC50 is 9.04.

`C/C(=C\c1cc(C)c(-c2ccc(NC(C)C)cc2F)cc1C)C(=O)NC1CC1` [Compound 154]: the pIC50 in experiment [1] was 8.10.

`C/C(=C\c1c(C)c(C)c(-c2ccc(NC(C)C)cc2)c(C)c1C)C(=O)NC1CC1` [Compound 424] showed a pIC50 in experiment [1] of 8.59.

Take `Cc1cc(-c2cc(O)c3[nH]ccc3c2)c(C)cc1/C=C(\Cl)C(=O)NC1CC1` [Compound 268]: the pIC50 in experiment [1] is 8.24.

Consider `C/C(=C\c1cc(C)c(-c2ccc(NC3CCCC3)cc2)cc1C)C(=O)NC(C)(C)C` [Compound 414], for which the negative logarithm of the IC50 (pIC50) in experiment [1] is 8.05.

Compound `COc1c(C)c(-c2ccc(NCC=C(C)C)cc2)c(OC)c(C)c1/C=C(\C)C(=O)NC1CCCC1` [Compound 575] had a pIC50 in experiment [1] of 8.02.

`C/C(=C\c1cc(C)c(-c2ccc(NCc3ccco3)cc2F)cc1C)C(=O)NC(C)C` [Compound 158] showed a pIC50 in experiment [1] of 8.15.

As for `Cc1c(F)c(-c2ccc(NC3CCCC3)cc2)c(C)c(F)c1/C=C(\F)C(=O)NC(C)C` [Compound 518], the pIC50 in experiment [1] is 8.14.

In experiment [1], `CC(C)=CCNc1ccc(-c2cc(C)c(/C=C(\C)C(=O)NC(C)C)cc2C)c(F)c1` [Compound 116] had a pIC50 of 8.44.

In the case of `COc1c(C)c(-c2ccc(NCC=C(C)C)cc2)c(OC)c(C)c1/C=C(\C)C(=O)NC(C)C` [Compound 574], in experiment [1], the pIC50 is 8.03.

Compound `C/C(=C\c1c(C)c(C)c(-c2ccc(NC(C)C)cc2)c(C)c1C)C(=O)NC1CCCC1` [Compound 434] had a negative-log IC50 (pIC50) in experiment [1] of 8.62.

Take `C/C(=C\c1cc(C)c(-c2ccc3[nH]c(C)cc3c2)cc1C)C(=O)NC(C)C` [Compound 383]: the pIC50 in experiment [1] is 7.87.

Regarding `C/C(=C\c1c(C)c(C)c(-c2ccc3[nH]ccc3c2)c(C)c1C)C(=O)NC(C)C` [Compound 427], the pIC50 in experiment [1] is 7.88.

`C/C(=C\c1cc(C)c(-c2cccc3[nH]ccc23)cc1C)C(=O)NC1CC1` [Compound 281] gave a negative logarithm of the IC50 (pIC50) in experiment [1] of 8.28.

The compound `CC/C(=C\c1cc(C)c(-c2ccc(NC3CCCC3)cc2F)cc1C)C(=O)NC1CCCCC1` [Compound 325] gave a negative-log IC50 (pIC50) in experiment [1] of 7.99.

As a reminder, the pIC50 is the IC50 on a negative log10 scale, so that one unit is a factor of ten. Broadly, the IC50 is the concentration at which inhibition is half-maximal.
